For experiment [1], the system named is KG-1 cell line (FGFR 1-fusion). Description: Cancer cell line cell viability assay (Cell Titer-Glo), 72 hr. Type of experiment: cell-based. The following applies: Homo sapiens. A digest of the protocol:
(§1)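 Cells seeded at 5,000-20,000/well, incubated overnight, then treated with a 9-dose, 4-fold dilution series from 3 μM in triplicate at 37° C, 5% CO2. Viability read by Cell Titer-Glo 2.0 luminescence as percent of DMSO control; IC50 from 4-parameter variable-slope sigmoidal fit.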
A general note: ATP-based viability assays read luminescence as a measure of living cells.

Experiment [2] has as its system RT112/84 cell line (FGFR3-fusion). The description is as above. Type of experiment: cell-based. The following applies: Homo sapiens. A digest of the protocol: as §1
Experiment [3] concerns KATO-III cell line (FGFR2 amplification). The experiment is described as above. Type of experiment: cell-based. The following applies: Homo sapiens. A digest of the protocol: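 Intracellular ATP was measured by Cell Titer-Glo 2.0 luminescence after cells were incubated with compound dilutions (top 3 μM, 4-fold, 9 doses). Values were expressed relative to DMSO-treated cells and IC50 was calculated from a variable-slope dose-response curve.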

In the next experiment the target is T1, FGFR3 (V555M) (Homo sapiens, UniProt P22607, V555M).
T1 construct: made in house; host or cells: E. coli (BL21-derived), T7 phage
T1 sequence (P22607 23-806 V555M): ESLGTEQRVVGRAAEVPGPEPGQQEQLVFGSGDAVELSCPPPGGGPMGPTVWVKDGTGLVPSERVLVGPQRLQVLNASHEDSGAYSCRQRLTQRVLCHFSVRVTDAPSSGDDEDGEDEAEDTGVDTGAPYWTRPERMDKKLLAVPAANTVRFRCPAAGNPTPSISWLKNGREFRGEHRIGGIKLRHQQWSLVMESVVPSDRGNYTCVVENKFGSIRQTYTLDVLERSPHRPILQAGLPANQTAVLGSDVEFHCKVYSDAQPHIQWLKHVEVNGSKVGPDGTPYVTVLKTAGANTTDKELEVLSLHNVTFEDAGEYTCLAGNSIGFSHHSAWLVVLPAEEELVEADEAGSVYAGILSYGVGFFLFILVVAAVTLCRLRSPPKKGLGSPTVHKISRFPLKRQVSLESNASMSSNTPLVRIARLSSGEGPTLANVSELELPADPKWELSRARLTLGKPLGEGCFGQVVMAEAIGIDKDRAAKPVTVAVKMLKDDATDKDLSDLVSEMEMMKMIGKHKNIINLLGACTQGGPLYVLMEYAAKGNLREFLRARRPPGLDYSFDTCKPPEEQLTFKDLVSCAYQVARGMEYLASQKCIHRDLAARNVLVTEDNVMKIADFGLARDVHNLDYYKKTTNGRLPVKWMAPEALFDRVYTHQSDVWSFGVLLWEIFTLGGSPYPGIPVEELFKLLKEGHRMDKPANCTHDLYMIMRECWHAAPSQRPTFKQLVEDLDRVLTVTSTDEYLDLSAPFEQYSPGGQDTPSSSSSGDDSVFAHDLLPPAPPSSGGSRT
Description: Kinase binding assay (kinase-tagged T7 phage, affinity beads, qPCR), Kd. The following applies: for Kd: V555M mutant, read-out: FGFR3 (V555M) (Kd nM). A digest of the protocol: (§2)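 First, phage lysates carrying tagged kinase are made in E. coli at 32° C. Next, they are combined with blocked biotin-ligand streptavidin beads and compound at 0.9% final DMSO. Finally, eluted kinase is measured by qPCR and Kd is fitted with the Hill equation.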
Background: Real-time PCR tracks product formation cycle by cycle.

A further experiment deals with T2, FGFR4 (Homo sapiens, UniProt P22455).
T2 construct: made in house; host or cells: E. coli (BL21-derived), T7 phage
T2 sequence (P22455 22-802): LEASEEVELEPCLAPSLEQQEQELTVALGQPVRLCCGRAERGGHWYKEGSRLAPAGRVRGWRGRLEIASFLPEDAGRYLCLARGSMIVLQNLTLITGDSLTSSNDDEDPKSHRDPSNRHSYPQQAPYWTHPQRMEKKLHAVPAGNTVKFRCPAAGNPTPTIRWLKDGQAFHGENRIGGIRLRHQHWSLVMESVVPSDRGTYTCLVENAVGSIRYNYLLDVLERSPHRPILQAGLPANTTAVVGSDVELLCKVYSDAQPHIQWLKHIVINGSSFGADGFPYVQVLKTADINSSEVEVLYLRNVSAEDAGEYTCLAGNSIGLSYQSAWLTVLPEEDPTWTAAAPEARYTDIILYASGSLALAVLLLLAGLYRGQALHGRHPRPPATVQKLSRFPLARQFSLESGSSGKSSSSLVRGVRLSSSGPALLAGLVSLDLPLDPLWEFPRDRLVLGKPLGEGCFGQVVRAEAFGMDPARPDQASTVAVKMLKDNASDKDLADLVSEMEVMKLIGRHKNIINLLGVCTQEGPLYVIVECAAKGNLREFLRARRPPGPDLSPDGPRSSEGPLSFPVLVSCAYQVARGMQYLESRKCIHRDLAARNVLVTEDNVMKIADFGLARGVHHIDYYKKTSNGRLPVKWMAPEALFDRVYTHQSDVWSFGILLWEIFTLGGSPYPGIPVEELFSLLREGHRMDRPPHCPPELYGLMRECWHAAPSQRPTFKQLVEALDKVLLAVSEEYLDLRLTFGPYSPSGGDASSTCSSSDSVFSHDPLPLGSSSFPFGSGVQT
The description is as above. The following applies: for Kd: read-out: FGFR4 (Kd nM). An outline of the steps: as §2

For a further experiment, the target named is T3, FGFR1 (Homo sapiens, UniProt P11362).
T3 construct: made in house; host or cells: E. coli (BL21-derived), T7 phage
T3 sequence (P11362 22-822): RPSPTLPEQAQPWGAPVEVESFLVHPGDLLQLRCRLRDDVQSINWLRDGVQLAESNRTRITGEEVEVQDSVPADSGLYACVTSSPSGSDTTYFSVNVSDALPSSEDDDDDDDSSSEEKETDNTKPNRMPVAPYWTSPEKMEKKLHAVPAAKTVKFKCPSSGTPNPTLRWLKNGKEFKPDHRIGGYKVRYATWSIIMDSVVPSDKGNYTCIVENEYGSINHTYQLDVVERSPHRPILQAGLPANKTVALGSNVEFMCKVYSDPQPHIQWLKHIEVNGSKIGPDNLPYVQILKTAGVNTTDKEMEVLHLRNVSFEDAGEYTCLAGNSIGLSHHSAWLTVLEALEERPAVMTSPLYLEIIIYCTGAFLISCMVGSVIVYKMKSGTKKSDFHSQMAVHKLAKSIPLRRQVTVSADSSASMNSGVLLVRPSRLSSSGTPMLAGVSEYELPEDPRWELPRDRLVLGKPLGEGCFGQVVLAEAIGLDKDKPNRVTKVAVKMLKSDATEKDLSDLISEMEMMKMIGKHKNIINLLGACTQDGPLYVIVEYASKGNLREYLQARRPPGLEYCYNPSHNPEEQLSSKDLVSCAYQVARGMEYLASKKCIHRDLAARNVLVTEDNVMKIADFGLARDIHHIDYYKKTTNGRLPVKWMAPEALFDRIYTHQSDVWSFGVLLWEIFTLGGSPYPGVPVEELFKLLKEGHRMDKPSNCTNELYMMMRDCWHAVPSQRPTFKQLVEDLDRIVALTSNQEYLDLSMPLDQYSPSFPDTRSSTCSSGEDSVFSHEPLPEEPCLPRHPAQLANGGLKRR
The description is as above. The settings on record: for Kd: read-out: FGFR1 (Kd nM). An outline of the steps:
as §2

In a further experiment the target is T4, FGFR2 (Homo sapiens, UniProt P21802).
T4 construct: made in house; host or cells: E. coli (BL21-derived), T7 phage
T4 sequence (P21802 22-821): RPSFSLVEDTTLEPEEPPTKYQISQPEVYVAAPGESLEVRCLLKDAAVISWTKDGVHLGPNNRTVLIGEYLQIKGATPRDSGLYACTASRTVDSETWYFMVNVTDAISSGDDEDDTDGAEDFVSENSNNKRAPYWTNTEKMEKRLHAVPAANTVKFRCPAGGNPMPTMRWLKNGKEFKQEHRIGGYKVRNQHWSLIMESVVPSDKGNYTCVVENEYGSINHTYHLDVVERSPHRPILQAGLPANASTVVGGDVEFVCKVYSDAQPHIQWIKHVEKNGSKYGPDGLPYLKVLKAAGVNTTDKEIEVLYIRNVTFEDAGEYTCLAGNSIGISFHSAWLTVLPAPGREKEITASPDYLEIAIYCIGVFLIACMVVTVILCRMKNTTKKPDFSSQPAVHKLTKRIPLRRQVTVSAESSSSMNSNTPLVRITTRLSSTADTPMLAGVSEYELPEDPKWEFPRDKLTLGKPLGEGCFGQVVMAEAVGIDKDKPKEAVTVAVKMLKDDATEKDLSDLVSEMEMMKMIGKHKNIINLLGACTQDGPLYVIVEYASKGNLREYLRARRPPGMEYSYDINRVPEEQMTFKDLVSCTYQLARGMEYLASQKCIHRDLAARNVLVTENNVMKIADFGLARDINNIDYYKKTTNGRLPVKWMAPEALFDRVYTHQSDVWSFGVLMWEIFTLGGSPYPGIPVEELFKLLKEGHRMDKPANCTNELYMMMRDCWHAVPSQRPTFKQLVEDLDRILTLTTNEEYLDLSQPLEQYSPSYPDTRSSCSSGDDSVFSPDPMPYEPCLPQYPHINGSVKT
The experiment is described as above. An outline of the steps:
as §2

The target of the next experiment is T5, FGFR3 (Homo sapiens, UniProt P22607).
T5 construct: made in house; host or cells: E. coli (BL21-derived), T7 phage
T5 sequence (P22607 23-806): as the sequence (P22607 23-806 V555M) above, with M533V counted along it
The description is as above. The settings on record: for Kd: read-out: FGFR3 (Kd nM). A digest of the protocol:
as §2

Setting [4] is: KG-1, KG-1 cell line (FGFR1-fusion).
Where [5] appears, read: RT112/84, RT112/84 cell line (FGFR3-fusion).

Molecules are shown by their SMILES. pIC50, pKd: −log10 of the molar value. Read-outs that look alike come from different tables or passages of the source.

In the case of `COc1cc2[nH]nc(-c3cnc(N4CC(C)(NCC(C)(C)O)C4)c(F)c3)c2cc1O[C@H](C)c1c(Cl)cncc1Cl` [Example 159], the pIC50 in experiment [1] (setting [4]), in experiment [2] (setting [5]) and in experiment [3] (KATO III) was 7.30 to 10.00 throughout. For the same molecule, the Kd at FGFR3 (V555M), on FGFR4, on FGFR1, at FGFR2 (read-out: FGFR2 (Kd nM)) and at FGFR3 was 1 to 50 nM in each case.
Take `C[C@@H]1CN(C2(C)CN(c3ncc(-c4n[nH]c5ccc(O[C@H](C)c6c(Cl)cncc6Cl)cc45)cc3F)C2)CCO1` [Example 213, (R)-4-(1-(5-(5-((R)-1-(3,5-dichloropyridin-4-yl)ethoxy)-1H-indazol-3-yl)-3-fluoropyridin-2-yl)-3-methylazetidin-3-yl)-2-methylmorpholine]: the negative logarithm of the IC50 (pIC50) (as a rule, the negative decadic logarithm of the IC50, by convention in mol/L) in experiment [1] (setting [4]) is 6.00 to 6.70; in experiment [2] (setting [5]) it was 7.30 to 10.00; in experiment [3] (KATO III) it was 6.70 to 7.30. In addition, the Kd on FGFR3 (V555M), on FGFR4, on FGFR1, on FGFR2 (read-out: FGFR2 (Kd nM)) and at FGFR3 was 1 to 50 nM each time.
In the case of `C[C@@H](Oc1ccc2[nH]nc(-c3ccc(N4CC(C)(NCC(C)(C)O)C4)nc3)c2c1)c1c(Cl)cncc1Cl` [Example 115, (R)-1-((1-(5-(5-(1-(3,5-dichloropyridin-4-yl)ethoxy)-1H-indazol-3-yl)pyridin-2-yl)-3-methylazetidin-3-yl)amino)-2-methylpropan-2-ol], the pIC50 in experiment [1] (setting [4]), in experiment [2] (setting [5]) and in experiment [3] (KATO III) was 7.30 to 10.00 each time. Moreover, the Kd on FGFR3 (V555M), at FGFR4, on FGFR1, at FGFR2 (read-out: FGFR2 (Kd nM)) and on FGFR3 was 1 to 50 nM throughout.
For the molecule `COC1(C)CN(C2(C)CN(c3ncc(-c4n[nH]c5ccc(O[C@H](C)c6c(Cl)cncc6Cl)cc45)cc3F)C2)C1` [Example 97, (R)-5-(1-(3,5-dichloropyridin-4-yl)ethoxy)-3-(5-fluoro-6-(3-methoxy-3,3′-dimethyl-[1,3′-biazetidin]-1′-yl)pyridin-3-yl)-1H-indazole], the pIC50 in experiment [1] (setting [4]) is 6.70 to 7.30; in experiment [2] (setting [5]), 7.30 to 10.00; in experiment [3] (KATO III) it was 7.30 to 10.00. Further, the Kd at FGFR3 (V555M), on FGFR4, on FGFR1, on FGFR2 (read-out: FGFR2 (Kd nM)) and on FGFR3 was 1 to 50 nM each time.
For the molecule `C[C@@H](Oc1ccc2[nH]nc(-c3ccc(N4CC(C)(NC5COC5)C4)nc3)c2c1)c1c(Cl)cncc1Cl` [Example 64, (R)-1-(5-(5-(1-(3,5-dichloropyridin-4-yl)ethoxy)-1H-indazol-3-yl)pyridin-2-yl)-3-methyl-N-(oxetan-3-yl)azetidin-3-amine], the pIC50 in experiment [1] (setting [4]), in experiment [2] (setting [5]) and in experiment [3] (KATO III) was 7.30 to 10.00 each time. For the same molecule, the Kd at FGFR3 (V555M), at FGFR4, on FGFR1, at FGFR2 (read-out: FGFR2 (Kd nM)) and at FGFR3 was 1 to 50 nM in each case.
Turning to `CC(C)NC1(C)CN(c2ncc(-c3n[nH]c4cc(F)c(O[C@H](C)c5c(Cl)cncc5Cl)cc34)cc2F)C1` [Example 127, (R)-1-(5-(5-(1-(3,5-dichloropyridin-4-yl)ethoxy)-6-fluoro-1H-indazol-3-yl)-3-fluoropyridin-2-yl)-N-isopropyl-3-methylazetidin-3-amine], the negative logarithm of the IC50 (pIC50) is 6.70 to 7.30 in experiment [1] (setting [4]), 7.30 to 10.00 in experiment [2] (setting [5]) and 6.70 to 7.30 in experiment [3] (KATO III). Also, the Kd at FGFR3 (V555M), on FGFR4, at FGFR1, at FGFR2 (read-out: FGFR2 (Kd nM)) and on FGFR3 was 1 to 50 nM throughout.
For the molecule `C[C@@H](Oc1ccc2[nH]nc(-c3ccc(N4CC(C)(N5CC6CC(C5)O6)C4)nc3)c2c1)c1c(Cl)cncc1Cl` [Example 222, 3-(1-(5-(5-((R)-1-(3,5-dichloropyridin-4-yl)ethoxy)-1H-indazol-3-yl)pyridin-2-yl)-3-methylazetidin-3-yl)-6-oxa-3-aza-bicyclo[3.1.1]hep-tane], the pIC50 in experiment [1] (setting [4]), in experiment [2] (setting [5]) and in experiment [3] (KATO III) was 7.30 to 10.00 each time. In addition, the Kd at FGFR3 (V555M), on FGFR4, at FGFR1, on FGFR2 (read-out: FGFR2 (Kd nM)) and at FGFR3 was 1 to 50 nM throughout.
In the case of `C[C@@H](Oc1cc2c(-c3cnc(N4CC(C)(N5CCOCC5)C4)c(F)c3)n[nH]c2cc1F)c1c(Cl)cncc1Cl` [Example 158, (R)-4-(1-(5-(5-(1-(3,5-Dichloropyridin-4-yl)ethoxy)-6-fluoro-1H-indazol-3-yl)-3-fluoropyridin-2-yl)-3-methylazetidin-3-yl)morpholine], the pIC50 in experiment [1] (setting [4]) was 6.70 to 7.30; in experiment [2] (setting [5]), 7.30 to 10.00; in experiment [3] (KATO III) it was 7.30 to 10.00. Further, the Kd on FGFR3 (V555M), on FGFR4, at FGFR1, on FGFR2 (read-out: FGFR2 (Kd nM)) and on FGFR3 was 1 to 50 nM in each case.
For `C[C@@H](Oc1ccc2[nH]nc(-c3ccc(N4CC(C)(CN(C)S(C)(=O)=O)C4)nc3)c2c1)c1c(Cl)cncc1Cl` [Example 74, (R)-N-((1-(5-(5-(1-(3,5-dichloropyridin-4-yl)ethoxy)-1H-indazol-3-yl)pyridin-2-yl)-3-methylazetidin-3-yl)methyl)-N-methylmethanesulfona-mide], the pIC50 in experiment [1] (setting [4]) is 6.70 to 7.30; in experiment [2] (setting [5]), 7.30 to 10.00; in experiment [3] (KATO III) it was 7.30 to 10.00. For the same molecule, the Kd at FGFR3 (V555M), at FGFR4, on FGFR1, on FGFR2 (read-out: FGFR2 (Kd nM)) and at FGFR3 was 1 to 50 nM throughout.
For `C[C@H](O)CNC1(C)CN(c2ccc(-c3n[nH]c4ccc(O[C@H](C)c5c(Cl)cncc5Cl)cc34)cn2)C1` [Example 90, (S)-1-((1-(5-(5-((R)-1-(3,5-dichloropyridin-4-yl)ethoxy)-1H-indazol-3-yl)pyridin-2-yl)-3-methylazetidin-3-yl)amino)propan-2-ol], the pIC50 in experiment [1] (setting [4]), in experiment [2] (setting [5]) and in experiment [3] (KATO III) was 7.30 to 10.00 throughout. Also, the Kd on FGFR3 (V555M), on FGFR4, at FGFR1, at FGFR2 (read-out: FGFR2 (Kd nM)) and on FGFR3 was 1 to 50 nM throughout.
On to `COc1cc2[nH]nc(-c3cnc(N4CC(C)(NCC5CC5)C4)c(F)c3)c2cc1O[C@H](C)c1c(Cl)cncc1Cl` [Example 126, (R)-N-(cyclopropylmethyl)-1-(5-(5-(1-(3,5-dichloropyridin-4-yl)ethoxy)-6-methoxy-1H-indazol-3-yl)-3-fluoropyridin-2-yl)-3-methylazetidin-3-amine], for which the negative-log IC50 (pIC50) in experiment [1] (setting [4]), in experiment [2] (setting [5]) and in experiment [3] (KATO III) was 7.30 to 10.00 throughout. In addition, the Kd on FGFR3 (V555M), on FGFR4, on FGFR1, at FGFR2 (read-out: FGFR2 (Kd nM)) and on FGFR3 was 1 to 50 nM throughout.
`COP(=O)(CC1(C)CN(c2ncc(-c3n[nH]c4ccc(O[C@H](C)c5c(Cl)cncc5Cl)cc34)cc2F)C1)OC` [Example 215, (R)-dimethyl ((1-(5-(5-(1-(3,5-dichloropyridin-4-yl)ethoxy)-1H-indazol-3-yl)-3-fluoropyridin-2-yl)-3-methylazetidin-3-yl)methyl)phos-phonate]: the pIC50 in experiment [1] (KG-1 cell line (FGFR1-fusion)) is 6.70 to 7.30; in experiment [2] (RT112/84 cell line (FGFR3-fusion)), 7.30 to 10.00; in experiment [3] it was 6.70 to 7.30. Also, the pKd on FGFR3 (V555M), at FGFR4, at FGFR1 and at FGFR3 was 7.30 to 9.00 each time. Moreover, at FGFR2 (FGFR2 (Kd nM)), the Kd – broadly, the free concentration of one partner at which half of the binding sites on the other are occupied at equilibrium, for simple one-to-one binding – was in the range of 1 to 50 nM.
Take `C[C@@H](O)CNC1(C)CN(c2ccc(-c3n[nH]c4ccc(O[C@H](C)c5c(Cl)cncc5Cl)cc34)cn2)C1` [Example 91, (R)-1-((1-(5-(5-((R)-1-(3,5-dichloropyridin-4-yl)ethoxy)-1H-indazol-3-yl)pyridin-2-yl)-3-methylazetidin-3-yl)amino)propan-2-ol]: the negative-log IC50 (pIC50) in experiment [1] (setting [4]), in experiment [2] (setting [5]) and in experiment [3] (KATO III) was 7.30 to 10.00 in each case. For the same molecule, the dissociation constant (Kd) at FGFR3 (V555M), at FGFR4, on FGFR1, on FGFR2 (read-out: FGFR2 (Kd nM)) and on FGFR3 was 1 to 50 nM in each case.
